In PMC6515293 (Molecules, 2019):
“Also recorded” adds a separate entry of the source.

What was measured:
MCF-7 cells = test system: MCF-7 cells; parameters: method as in PMID 12913283; conditions: cited from earlier work
budding yeast = test system: budding yeast; parameters: method as in PMID 29783050; conditions: cited from earlier work
estrogen receptor = test system: estrogen receptor; parameters: method as in PMID 26272952; conditions: computational network model; cited from earlier work
male rats = test system: male rats; parameters: method as in PMID 17654256; conditions: cited from earlier work
fetal testis = conditions: cited from earlier work
[1] = test system: estrogen responsive elements (ERE-luc or AP-1-luc); parameters: method as in PMID 20209442; conditions: 10 μM of MEHP; cited from earlier work
human ERα = test system: human ERα; parameters: method as in PMID 15840436; conditions: 10.0 μM of MEHP in the presence of 10.0 pM E2; cited from earlier work
[2] = test system: YES and YAS Saccharomyces cerevisiae yeasts; assay: Yeast cytotoxicity (growth factor, absorbance at 690 nm)

For `CCCCC(CC)COC(=O)c1ccccc1C(=O)O` (stereo not drawn) [MEHP, mono-(2-ethylhexyl) phthalate], which anti-estrogenic activity (MCF-7 cells) is on record?
The anti-estrogenic activity was “decrease of natural estrogenic activity”.

And the “concentration at which cytotoxicity was induced” value (budding yeast)?
Its value is 1600 µM.

And the anti-estrogenic activity (estrogen receptor)?
The anti-estrogenic activity was “no anti-estrogenic activity”.

And the “weights of ventral prostate, seminal vesicles and levator ani/bulbocavernosus (LABC)” value (male rats)?
The value was “decreased weights”.

What about the testosterone production (fetal testis) of the same compound?
The testosterone production was “did not affect”.

And the estrogenic activity [1]?
Its estrogenic activity is “estrogenic effect”.

What about the anti-estrogenic activity (human ERα) of the same compound?
The anti-estrogenic activity was “no anti-estrogenic activity”.

And the “cytotoxicity (yeast cell viability)” value ([2]; 100 nM to 1.00 mM)?
Its value is “did not induce yeast toxicity; also recorded: no effect”.

And the “cytotoxicity (yeast cell viability)” value ([2]; 10.0 mM, growth factor below 0.5)?
The value was “significant cytotoxicity”.
